US12285432B2, “Treatment of hair loss disorders with deuterated JAK inhibitors” (Sun Pharmaceutical Industries, Inc., priority 2021, dated 2025)
Like-named read-outs stand apart in the source and are kept apart here.

How the values were obtained:
[1] = cited from earlier work
[2] = Drug-drug interaction study of Compound (I) (CTP-543) and itraconazole in healthy volunteers, plasma pharmacokinetics; format: in vivo, human
alopecia areata = assay: Human clinical trials of CTP-543 in patients suffering from alopecia areata; format: in vivo
[3] = 10 mg ruxolitinib with vs without ketoconazole 200 mg twice a day, healthy volunteers
[4] = 12 mg Compound (I) alone (Reference), healthy volunteers, plasma
[5] = 12 mg Compound (I) with vs without itraconazole

AUC(0-Tlast) [2, 4] [ng·h/mL]	AUC(0-∞) [2, 4] [ng·h/mL]	AUC(0-Tlast) ([2]; 12 mg Compound (I) with itraconazole 200 mg (Test), healthy volunteers, plasma) [ng·h/mL]	increase in the AUC as a result of dosing with itraconazole [2, 5] [%]	increase in the Cmax as a result of dosing with itraconazole [2, 5] [%]	half-life ([2]; Compound (I) without itraconazole) [min]	Cmax ([2]; human, plasma, 12 mg) [ng/mL]	half-life ([2]; human, plasma, 12 mg, read-out: t1/2 (converted)) [min]	half-life ([2]; human, plasma, read-out: half-life (converted)) [min]	Structure (SMILES)	half-life ([1]; 10 mg ruxolitinib dosed with ketoconazole) [h]	AUC increase as a result of dosing with ketoconazole [1, 3] [%]	Cmax increase as a result of dosing with ketoconazole [1, 3] [%]	half-life ([1]; 10 mg ruxolitinib without ketoconazole) [h]	hair growth in patients suffering from alopecia areata (alopecia areata)
									N#CC[C@H](C1CCCC1)n1cc(-c2ncnc3[nH]ccc23)cn1.O=P(O)(O)O [ruxolitinib, (R)-3-(4-(7H-pyrrolo[2,3-d]pyrimidin-4-yl)-1H-pyrazol-1-yl)-3-cyclopentylpropanenitrile phosphate]	6.0	91	33	3.7	
1326.80	1332.48	1679.53	~27	~13	251	266	248	277	[2H]C1([2H])C([C@@H](CC#N)n2cc(-c3ncnc4[nH]ccc34)cn2)C([2H])([2H])C([2H])([2H])C1([2H])[2H] [Compound (I), (R)-3-(4-(7H-pyrrolo[2,3-d]pyrimidin-4-yl)-1H-pyrazol-1-yl)-3-(cyclopentyl-2,2,3,3,4,4,5,5-d8)propanenitrile]					stimulate hair growth
